Broadly, the IC50 is the concentration at which inhibition is half-maximal. The term solubility denotes how much of the substance goes into solution per volume. A high value points to much dissolved substance. The fraction unbound is free concentration divided by total concentration. Read a low fraction unbound as extensive binding.

Converted amounts (≈) assume the structure as drawn.

The values below come from patent US9738610B2, “Indazole derivatives and uses thereof” (Whitehead Institute for Biomedical Research, priority 2012, dated 2017).

Data set [1] deals with fluconazole-susceptible C. albicans strain 90028. The conditions noted are these: cited from earlier work.
For data set [2], the system named is fluconazole-resistant C. albicans strain Gu5. The conditions noted are these: cited from earlier work.
A further data set has as its system C. albicans CaCi-8. Put plainly: microbe, parasite or virus in culture. The format is cell-based, Candida albicans. The conditions noted are these: read-out: Target Potency (μM) Mean ± S.E.M CaCi-8^a IC50; in the presence of fluconazole. Summed up: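 Hits tested for chemosensitization of the fluconazole-resistant CaCi-8 strain, for inherent antifungal activity without fluconazole, and for mammalian fibroblast toxicity by fluorescence reporter. Geldanamycin plus fluconazole served as positive control; a Saccharomyces assay assigned mechanism to Hsp90, calcineurin or other pathways.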

Another data set in a line: Plasma stability. The conditions noted are these: % remaining in human plasma after a 5-hour incubation.
A further data set in a line: PBS solubility. The conditions noted are these: aqueous buffer.
A further data set is described as follows: Plasma protein binding. The conditions noted are these: human, plasma.
In a further data set the test system is C. albicans CaCi-2. Nature of the data set: Secondary single-agent (no-fluconazole) activity assay. The format is cell-based, Candida albicans. The conditions noted are these: Candida albicans, CACI2; in the absence of fluconazole; read-out: Target Potency (μM) Mean ± S.E.M CaCi-2^b IC50. Summed up: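 C. albicans CaCi-2 in RPMI synthetic defined medium with 1% Pen/Strep, starting OD600 0.00015, exposed to compound alone (no fluconazole) for 48 h at 37 °C without agitation. Growth read as Alamar Blue fluorescence (1:200 final) after 2 h at room temperature.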

Data set [3] has as its system NIH-3T3 mammalian fibroblasts. Nature of the data set: Counterscreen mammalian cell toxicity assay (fibroblast toxicity). The format is cell-based, murine. The conditions noted are these: Mus musculus, NIH3T3; footnote: in the absence of fluconazole; read-out: Anti-target Potency (μM) Mean ± S.E.M Fibroblasts^b IC50.
Data set [4] deals with Saccharomyces cerevisiae strain W303-1a. Put plainly: In vivo inhibition of fungal respiration (growth on glycerol). The data set is classed as cell-based. The conditions noted are these: glycerol medium, 48 hours. As to the method: Saccharomyces cerevisiae (S. cerevisiae) strain W303-1a was grown overnight in Yeast-Peptone-Dextrose media, washed, and diluted into Yeast Nitrogen Base media with 2.5% glycerol containing compounds at a range of dilutions.

The subject of the next data set is Aspergillus terreus. Put plainly: Aspergillus terreus susceptibility test (CLSI M38-A2). The data set is classed as cell-based. Here is the method: Aspergillus terreus (A. terreus) susceptibility testing was performed as described in Clinical Laboratory Standards Institute document […]-A2 (CLSI […]-A2) (CLSI. Reference Method for Broth Dilution Antifungal Susceptibility Testing of Filamentous Fungi; Approved Standard-Second Edition. CLSI, 940 West Valley Road, Suite 1400, Wayne, Pa. 19087-1898 USA, 2003).

Data set [5] in a line: IC50 values and selectivity of Table 10A (target yeast, anti-target human cytochrome). The format is biochemical. Here is the method: (§1) All measurements were performed in triplicate.
The next data set deals with T1, yeast (Saccharomyces cerevisiae, UniProt P00163).
T1 construct: Mitochondrial membranes were prepared from yeast; endogenous in cells; host or cells: yeast (mitochondrial membranes)
The description is as above. The conditions noted are these: target yeast, anti-target human cytochrome. The format is biochemical. Here is the method: as §1

For another data set, the system named is fungus. The conditions noted are these: cited from earlier work.

In the case of `Clc1ccc2c(c1)nnc1nnnn12` [CTBT, 7-chlorotetrazolo[5,1-c]benzo[1,2,4]triazine], in data set [1], the “Activity in the absence of fluconazole” value is listed as “no activity” and the “MIC when combined with fluconazole” value was 2.4 µM. Moreover, in [2], the “Concentrations inhibiting growth in the absence of fluconazole” value is “greater than 2.4 μM” and the “MIC when combined with fluconazole” value was 2.4 µM.
Regarding `O=C(O)c1nn(Cc2ccc(Cl)cc2)c2ccccc12` [Compound 100493], the figures for the IC50 (in the data set with C. albicans CaCi-8; in the data set on C. albicans CaCi-2; in data set [3]) were over 26 µM, over 26 µM and over 6 µM, respectively. For the same molecule, in “Plasma stability”, the “Plasma Stability” value is reported as over 99%. In the data set “PBS solubility” (PBS), the concentration in solution (solubility) was 516 µM (≈ 148 µg/mL). In “Plasma protein binding”, this molecule had a fraction unbound of under 0.01.
As to `COC(=O)Cn1c(-c2ccccc2)nc2ccccc21` [Compound 4131200], the IC50 in the data set with C. albicans CaCi-8 was over 26 µM; with C. albicans CaCi-2, over 26 µM; in data set [3] it was over 6 µM. Further, the “Plasma Stability” value in the data set “Plasma stability” was 46%. Also, in the data set “PBS solubility” (PBS), the solubility stood at 438 µM (≈ 117 µg/mL). The fraction unbound in “Plasma protein binding” was determined as 0.05.
As for `COc1ccc(-c2n[nH]c3ccccc23)cc1` [Compound 9855970], the IC50 is over 26 µM with C. albicans CaCi-8, over 26 µM in the data set on C. albicans CaCi-2 and over 6 µM in [3]. Also, the “Plasma Stability” value in “Plasma stability” is 89%. This molecule also came in with a solubility in “PBS solubility” (PBS) of under 1 µM. The free fraction (fraction unbound) in “Plasma protein binding” was 0.02.
In the case of `CCOC(=O)c1nn(Cc2ccc(Cl)cc2)c2ccccc12` [Compound 12312246], the values for the IC50 (with C. albicans CaCi-8; with C. albicans CaCi-2; in [3]) were over 26 µM, over 26 µM and over 6 µM, respectively. The “Plasma Stability” value in “Plasma stability” was found to be 93%. Further, in the data set “PBS solubility”, the solubility is under 0.1 µM. In addition, the fraction unbound in the data set “Plasma protein binding” is under 0.01.
Regarding `O=C(O)c1c2ccccc2nn1Cc1ccc(Cl)cc1` [Compound 14420592], the IC50 with C. albicans CaCi-8 is over 26 µM; in the data set with C. albicans CaCi-2, over 26 µM; in data set [3] it was over 6 µM. Besides, the “Plasma Stability” value in “Plasma stability” was determined as 96%. Also, in “PBS solubility” (PBS), the solubility came out at 503 µM (≈ 144 µg/mL). For the same molecule, the fraction unbound in “Plasma protein binding” is under 0.01.
On to `CCCNC(=O)Cn1nc(-c2ccccc2)c2cc(Cl)ccc21` [Compound 20877322], for which the 50% inhibitory concentration (IC50) was over 26 µM in the data set with C. albicans CaCi-8, over 26 µM in the data set with C. albicans CaCi-2 and over 6 µM in [3]. For the same molecule, the “Plasma Stability” value in “Plasma stability” worked out at 97%. The same molecule gave a solubility in “PBS solubility” (PBS) of under 1 µM. The fraction unbound in “Plasma protein binding” is under 0.01.
For the molecule `O=C(Cn1nc(-c2ccccc2)c2cc(Cl)ccc21)N1CCOCC1` [Compound 20877381], the IC50 was over 26 µM with C. albicans CaCi-8, over 26 µM in the data set with C. albicans CaCi-2 and over 6 µM in data set [3]. Also, the “Plasma Stability” value in “Plasma stability” is recorded as 99%. This molecule returned a solubility in “PBS solubility” (PBS) of 8 µM (≈ 2.85 µg/mL). The same molecule registered a fraction unbound in “Plasma protein binding” of 0.04.
On to `O=C(Cn1nc(C(=O)N2CCCCC2)c2ccccc21)N1CCOCC1` [Compound 46378661], for which the IC50 in the data set with C. albicans CaCi-8 was over 26 µM; with C. albicans CaCi-2, over 26 µM; in data set [3], over 6 µM. The “Plasma Stability” value in the data set “Plasma stability” was over 99%. In addition, the solubility in the data set “PBS solubility” (PBS) was determined as 529 µM (≈ 189 µg/mL). The fraction unbound in the data set “Plasma protein binding” turned out to be 0.48.
`Cc1nn(S(C)(=O)=O)c2ccccc12` [Compound 46856251]: the IC50 in the data set on C. albicans CaCi-8 was over 26 µM; in the data set with C. albicans CaCi-2, over 26 µM; in data set [3] it was over 6 µM. For the same molecule, the “Plasma Stability” value in “Plasma stability” is given as over 99%. Also, the solubility in the data set “PBS solubility” (PBS) stood at 494 µM (≈ 104 µg/mL). The same molecule displayed a fraction unbound in “Plasma protein binding” of 0.37.
For `CCOC(=O)c1c2ccccc2nn1Cc1ccc(Cl)cc1` [Compound 46856252], the results for the IC50 (with C. albicans CaCi-8; in the data set on C. albicans CaCi-2; in [3]) were over 26 µM, over 26 µM and over 6 µM, respectively. Moreover, in “Plasma stability”, the “Plasma Stability” value is 70%. Also, the solubility in the data set “PBS solubility” (PBS) is under 1 µM. In addition, the fraction unbound in “Plasma protein binding” was under 0.01.
Regarding `FC(F)(F)c1ccc(-c2n[nH]c3ccccc23)cc1` [Compound 49635869], the IC50 in the data set on C. albicans CaCi-8 was over 26 µM; in the data set on C. albicans CaCi-2, over 26 µM; in [3], over 6 µM. In addition, the “Plasma Stability” value in “Plasma stability” turned out to be 79%. Also, the solubility in “PBS solubility” (PBS) was under 1 µM. For the same molecule, the fraction unbound in “Plasma protein binding” was under 0.01.
Take `COC(=O)Cn1nc(-c2ccccc2)c2cccc(C(F)(F)F)c21` [Compound 49835842]: the IC50 in the data set with C. albicans CaCi-8 was over 26 µM; in the data set on C. albicans CaCi-2, over 26 µM; in [3], over 6 µM. The “Plasma Stability” value in the data set “Plasma stability” is given as 50%. This molecule showed a solubility in the data set “PBS solubility” (PBS) of under 1 µM. For the same molecule, the fraction unbound in the data set “Plasma protein binding” was under 0.01.
For `COC(=O)Cn1nc(-c2cccc(OCc3ccccc3)c2)c2ccccc21` [Compound I-7], the “Inhibitory activity against S. cerevisiae (respiratory growth)” value in [4] is on record as “shows inhibitory activity”. Further, the “Inhibitory activity against A. terreus” value in the data set with Aspergillus terreus is on record as “shows inhibitory activity”.
`c1ccc(-c2nn(Cc3nnco3)c3ccccc23)cc1` [Compound I-74] had an IC50 in data set [5] of 3 µM. Further, on yeast, the “Selectivity* (anti-target IC50)/(target IC50)” value (“Selectivity*” below) was 53.
The molecule `CNC(=O)Cn1nc(-c2ccccc2)c2ccccc21` [Compound I-75] showed an IC50 in data set [5] of over 80 µM.
On to `COC(=O)Cn1nc(-c2ccsc2)c2ccccc21` [Compound I-77], for which half-maximal inhibition in data set [5] (IC50) was put at 0.625 µM. Moreover, the “Selectivity*” value at yeast worked out at 48.
In turn, `COC(=O)Cn1nc(-c2cccc(OCCCC3CCCCC3)c2)c2ccccc21` [Compound I-78] displayed an IC50 in [5] of 0.01 µM. On yeast, the “Selectivity*” value is on record as 100.
The corresponding values for `COC(=O)Cn1nc(-c2cccc(OCCC(C)(C)C)c2)c2ccccc21` [Compound I-79] are 0.04 µM and 50.
The molecule `COC(=O)Cn1nc(-c2ccccc2)c2cccc(C)c21` [Compound I-82] gave a half-maximal inhibitory concentration (IC50) in [5] of 0.125 µM. The “Selectivity*” value on yeast came out at 40.
In the case of `c1ccc(-c2nn(Cc3nn[nH]n3)c3ccccc23)cc1` [Compound I-87], the half-maximal inhibitory concentration (IC50) in [5] was over 160 µM.
For `Cc1cc(Cn2nc(-c3ccccc3)c3ccccc32)on1` [Compound I-92], half-maximal inhibition in [5] (IC50) required 30 µM. For the same molecule, the “Selectivity*” value on yeast was over 5.
In [5], `COC(=O)Cn1nc(-c2ccccc2)c2ccccc21` [Compound I-96] showed an IC50 of 0.6 µM.
Molecule `Cc1cccc2c(-c3cc(C(F)(F)F)ccc3F)nn(Cc3nnn(C)n3)c12` [Compound I-99] yielded an IC50 in data set [5] of 0.023 µM. Further, on yeast, the “Selectivity*” value was 160.
`Cn1nnc(Cn2nc(-c3cc(OCCCC4CCCCC4)ccc3F)c3ccccc32)n1` [Compound I-102] gave an IC50 in [5] of 0.046 µM. Moreover, the “Selectivity*” value on yeast worked out at 16.
Molecule `O=C(O)Cn1nc(-c2ccccc2)c2ccccc21` [Compound I-107] returned an IC50 in data set [5] of over 120 µM.
On to `Brc1cccnc1Cn1nc(-c2ccccc2)c2ccccc21` [Compound I-113], for which the IC50 in [5] is over 120 µM.
In data set [5], `c1ccc(-c2nn(Cc3cnccn3)c3ccccc23)cc1` [Compound I-115] returned an IC50 of 0.63 µM. In addition, the “Selectivity*” value at yeast was 128.
Regarding `COC(=O)Cn1nc(-c2cccc(C#N)c2)c2ccccc21` [Compound I-118], the IC50 in data set [5] was 1.25 µM. In addition, at yeast, the “Selectivity*” value was found to be 96.
On the same counts, the results for `COC(=O)Cn1nc(-c2cccc([N+](=O)[O-])c2)c2ccccc21` [Compound I-119] are 0.5 µM and 160.
In turn, `COC(=O)Cn1nc(-c2ccccn2)c2ccccc21` [Compound I-120] returned a half-maximal inhibitory concentration (IC50) in data set [5] of 15 µM.
`COC(=O)Cn1nc(-c2cccc(OCc3ccccc3)c2F)c2ccccc21` [Compound I-134] gave an IC50 in data set [5] of 0.2 µM. Also, on yeast, the “Selectivity*” value turned out to be 20.
On the same counts, the results for `COC(=O)Cn1nc(-c2cc(OCc3ccccc3)ccc2F)c2ccccc21` [Compound I-136] are 0.06 µM and 8.3.
With `COC(=O)Cn1nc(-c2cccc(OCc3ccccc3)c2)c2ccccc21` [Compound I-140], inhibition in data set [5] was half-maximal at 0.4 µM (IC50). The “Selectivity*” value at yeast is 8.
On to `CCCCc1oc2ccccc2c1C(=O)c1cc(I)c(OCCN(CC)CC)c(I)c1` [amiodarone], for which the “MIC50, single-agent antifungal activity” value with fungus was 3.1 µM (≈ 2 µg/mL).
